According to the supplement of paper PMC4862054:

Tests used:
CAL-51 [1] = settings: 72 h
In short: (§1)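 Viability of breast cancer cell lines was measured with CellTiter-Blue after 72 h of incubation on compound-loaded 384-well plates. Cells were seeded in 20 µl onto compound dissolved in 5 µl medium, and 2.5 µl reagent was added for 2 h at 37 °C before reading at 560/590 nm. EC50 was fitted from percent-inhibition dose-response data censored at the highest concentration, normalised per plate to vehicle and a positive kill control, with zero drug sensitivity score rows dropped.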

CAL-148 [2] = settings: 72 h
In short: as §1

BT-474 = experiment: normalised viability (% of control), CellTiter-Blue; higher = more viable cells (about 100 = DMSO control); settings: incubation time: 72 h
In short: (§2)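 Each entry is normalised viability at a single listed concentration within a series. It comes from breast cancer cell lines incubated 72 h with compound in 384-well plates, then measured with CellTiter-Blue fluorescence at 560/590 nm. Every plate was normalised between vehicle (100) and a positive kill control (0).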

HCC1143 = experiment: as above; settings: incubation time: 72 h
In short: as §2

MDA-MB-231 = experiment: as above; settings: incubation time: 72 h
In short: as §2

HCC1937 = experiment: as above; settings: incubation time: 72 h
In short: as §2

HDQ-P1 = experiment: as above; settings: incubation time: 72 h
In short: as §2

Hs578T = experiment: as above; settings: incubation time: 72 h
In short: as §2

CAL-85-1 = experiment: as above; settings: incubation time: 72 h
In short: as §2

CAL-51 [3] = experiment: as above; settings: incubation time: 72 h
In short: as §2

MDA-MB-453 = experiment: as above; settings: incubation time: 72 h
In short: as §2

MFM-223 = experiment: as above; settings: incubation time: 72 h
In short: as §2

MDA-MB-436 = experiment: as above; settings: incubation time: 72 h
In short: as §2

MDA-MB-468 = experiment: as above; settings: incubation time: 72 h
In short: as §2

DU-4475 = experiment: as above; settings: incubation time: 72 h
In short: as §2

BT-549 = experiment: as above; settings: incubation time: 72 h
In short: as §2

CAL-148 [4] = experiment: as above; settings: incubation time: 72 h
In short: as §2

Nc1ccn([C@@H]2O[C@H](CO)[C@@H](O)[C@@H]2O)c(=O)n1 [Cytarabine]
Settings	EC50, CellTiter-Blue viability [µM]
CAL-51 [1]	0.266
CAL-148 [2]	0.0323

normalised viability [%]
Settings	3 nM	10 nM	30 nM	100 nM	1000 nM	10000 nM
BT-474	–	103	–	–	95.7	93.4
BT-549	–	87.2	–	–	65.7	62.9
CAL-51 [3]	94.1	–	91.9	79.8	–	–
CAL-85-1	106	–	97.4	104	–	–
CAL-148 [4]	95.9	–	68.9	47.9	–	–
DU-4475	121	–	87.8	93.9	–	–
HCC1143	–	80.5	–	–	71.4	63
HCC1937	–	124	–	–	41.6	42.6
HDQ-P1	80.6	–	94.8	42.5	–	–
Hs578T	–	90.4	–	–	67.8	62.3
MDA-MB-231	–	100	–	–	67	61.7
MDA-MB-436	–	98.2	–	–	74.3	74.1
MDA-MB-453	101	–	111	94.9	–	–
MDA-MB-468	–	101	–	–	68.4	57.2
MFM-223	–	107	–	–	95.6	97.3

Cc1c2oc3c(C)ccc(C(=O)N[C@@H]4C(=O)N[C@H](C(C)C)C(=O)N5CCC[C@H]5C(=O)N(C)CC(=O)N(C)[C@@H](C(C)C)C(=O)O[C@@H]4C)c3nc-2c(C(=O)N[C@@H]2C(=O)N[C@H](C(C)C)C(=O)N3CCC[C@H]3C(=O)N(C)CC(=O)N(C)[C@@H](C(C)C)C(=O)O[C@@H]2C)c(N)c1=O [Dactinomycin]
Settings	EC50, CellTiter-Blue viability [µM]
CAL-51 [1]	0.00272
CAL-148 [2]	0.00076

normalised viability [%]
Settings	0.3 nM	1 nM	3 nM	10 nM	100 nM	1000 nM
BT-474	–	73.3	–	–	25.2	24.1
BT-549	–	56.6	–	–	4.94	4.47
CAL-51 [3]	99.7	–	50	17.8	–	–
CAL-85-1	79.1	–	43.6	40.8	–	–
CAL-148 [4]	71.8	–	32.4	4.61	–	–
DU-4475	89.3	–	2.85	0.2	–	–
HCC1143	–	50.3	–	–	17.6	16
HCC1937	–	65.8	–	–	21.8	18.4
HDQ-P1	85.1	–	45.2	35.9	–	–
Hs578T	–	53.8	–	–	3.41	1.67
MDA-MB-231	–	53.3	–	–	7.55	5.39
MDA-MB-436	–	48.8	–	–	13.1	9.7
MDA-MB-453	85.1	–	42.9	40.5	–	–
MDA-MB-468	–	60.3	–	–	3.39	4.33
MFM-223	–	86.2	–	–	8.99	10.4

COc1cccc2c1C(=O)c1c(O)c3c(c(O)c1C2=O)C[C@@](O)(C(=O)CO)C[C@@H]3O[C@H]1C[C@H](N)[C@H](O)[C@H](C)O1 [Doxorubicin]
Settings	EC50, CellTiter-Blue viability [µM]
CAL-51 [1]	0.164
CAL-148 [2]	0.0533

normalised viability [%]
Settings	0.3 nM	1 nM	3 nM	10 nM	100 nM	1000 nM
BT-474	–	97.3	–	–	84.7	34.1
BT-549	–	114	–	–	76.5	5.36
CAL-51 [3]	102	–	100	96.2	–	–
CAL-85-1	90	–	92.3	90.4	–	–
CAL-148 [4]	86.5	–	93	73.6	–	–
DU-4475	93.8	–	91.6	64	–	–
HCC1143	–	101	–	–	60.2	32.2
HCC1937	–	86.6	–	–	37	22.2
HDQ-P1	104	–	96.8	93	–	–
Hs578T	–	115	–	–	71.3	6.05
MDA-MB-231	–	85.1	–	–	64.4	25.8
MDA-MB-436	–	90.6	–	–	64.5	18.2
MDA-MB-453	105	–	102	101	–	–
MDA-MB-468	–	99.7	–	–	65.9	4.32
MFM-223	–	91.8	–	–	98	21.4

COc1cc(Nc2ncc3c(n2)-c2ccc(Cl)cc2C(c2c(F)cccc2OC)=NC3)ccc1C(=O)O [MLN8237]
Settings	EC50, CellTiter-Blue viability [µM]
CAL-51 [1]	0.111
CAL-148 [2]	0.184

normalised viability [%]
Settings	3 nM	10 nM	30 nM	100 nM	1000 nM	10000 nM
BT-474	–	103	–	–	82.9	58.5
BT-549	–	103	–	–	62.6	32.6
CAL-51 [3]	102	–	91.8	64.3	–	–
CAL-85-1	89	–	80.6	69.4	–	–
CAL-148 [4]	86.7	–	89.9	78.1	–	–
DU-4475	98.3	–	82.6	37.5	–	–
HCC1143	–	112	–	–	70.7	51.1
HCC1937	–	68	–	–	40	42.2
HDQ-P1	102	–	82.2	64	–	–
Hs578T	–	113	–	–	59.2	45.6
MDA-MB-231	–	101	–	–	58	33.3
MDA-MB-436	–	133	–	–	54.7	70.8
MDA-MB-453	91.8	–	50.2	44.3	–	–
MDA-MB-468	–	96.7	–	–	42.6	35.2
MFM-223	–	79.3	–	–	50.7	30.8
